In ChEMBL document CHEMBL1141615, “Targeting RNA with cysteine-constrained peptides” (Bioorg Med Chem Lett, 2008):

Assay: Binding affinity to BIV transactivating response element RNA
Set-up: species or system Bovine immunodeficiency virus

| Kd [µM] | SMILES |
| --- | --- |
| 9.1 | C[C@@H](O)[C@@H]1NC(=O)[C@H](CO)NC(=O)[C@H](Cc2c[nH]c3ccccc23)NC(=O)[C@H](CCC(N)=O)NC(=O)[C@H](Cc2cnc[nH]2)NC(=O)[C@H]([C@@H](C)O)NC(=O)[C@@H](N)CSSC[C@H](C(N)=O)NC(=O)[C@H](CCCCN)NC1=O |
| 7.9 | C[C@@H](O)[C@@H]1NC(=O)CNC(=O)[C@@H](N)CSSC[C@H](C(N)=O)NC(=O)[C@H](CCC(N)=O)NC(=O)[C@@H]2CCCN2C(=O)[C@H](Cc2c[nH]cn2)NC(=O)[C@H](Cc2cnc[nH]2)NC(=O)[C@H](Cc2c[nH]c3ccccc23)NC1=O |
